The values below come from patent US6444685B1, “N-(4-sulfonylaryl)Cyclylamine 2-hydroxyethylamines as beta-3 adrenergic receptor agonists” (Wyeth, priority 2000, dated 2002).

For orientation: melting point means the temperature, or range, at which the solid turns liquid. By EC50 is commonly meant the concentration needed to bring the measured effect to its halfway point.

The target of series [1] is T1, human β3 adrenergic receptor (Homo sapiens, UniProt P13945).
T1 construct: Full length β3 AR clones (402 amino acids) containing the last 6 amino acids of hβ3— AR are prepared; expressed in transfected cells; host or cells: CHO cells
T1 sequence (P13945 whole entry): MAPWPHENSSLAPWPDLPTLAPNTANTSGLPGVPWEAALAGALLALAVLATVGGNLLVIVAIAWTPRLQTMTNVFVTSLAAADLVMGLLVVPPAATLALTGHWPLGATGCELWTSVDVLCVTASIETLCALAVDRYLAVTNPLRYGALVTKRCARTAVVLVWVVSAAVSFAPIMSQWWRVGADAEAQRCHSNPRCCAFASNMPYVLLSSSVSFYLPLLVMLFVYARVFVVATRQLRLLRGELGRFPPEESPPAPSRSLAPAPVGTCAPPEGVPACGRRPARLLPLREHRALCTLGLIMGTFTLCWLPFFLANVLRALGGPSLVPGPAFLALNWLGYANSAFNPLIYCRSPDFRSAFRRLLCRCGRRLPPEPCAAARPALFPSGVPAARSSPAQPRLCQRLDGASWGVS
Briefly: cAMP accumulation (SPA) in CHO cells transfected with human β3 adrenergic receptor. Particulars: for EC50: CHO cells expressing human β3-AR, cAMP, 30 min incubation, 10^−9 M to 10^−5 M, read-out: beta-3 EC50; for beta-3 (IA) maximal response relative to isoproterenol: IA = % activity compound / % activity isoproterenol at 10^−5 M, CHO human β3 cells. Type of series: cell-based. The procedure, abridged: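 CHO cells expressing human β3-AR (70–110 fmol/mg protein) treated with compound at 10^−9 to 10^−5 M in DMEM with 250 μM IBMX and 1 mM ascorbic acid, 30 min, 37 °C. cAMP measured by SPA; EC50 derived, and intrinsic activity expressed relative to the maximal response of 10^−5 M isoproterenol.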
On the technique in general: Changes in cAMP serve as a functional read-out for many G protein-coupled receptors.

Structures are written as SMILES. Where a name gives a salt, the structure may show the parent alone.

With `CS(=O)(=O)Nc1cc([C@@H](O)CNC2CCN(c3ccc(S(=O)(=O)NCC(=O)O)cc3)CC2)ccc1O` (as salt: salt) [Example 53, 2-{[(4-{4-[((2R)-2-hydroxy-2-{4-hydroxy-3-[(methylsulfonyl)amino]phenyl}ethyl)amino]-1-piperidinyl}phenyl)sulfonyl]amino}acetic Acid], the melting point is 170 to 172 °C.

The compound `CS(=O)(=O)Nc1cc([C@@H](O)CNC2CCN(c3ccc(S(=O)(=O)N(CC(=O)O)CC(=O)O)cc3)CC2)ccc1O` (as salt: salt) [Example 55, 2-((Carboxymethyl)[(4-{4-[((2R)-2-hydroxy-2-{4-hydroxy-3-[(methylsulfonyl)amino]phenyl)ethyl)amino]-1-piperidinyl}phenyl)sulfonyl]amino}acetic Acid] showed a melting point of 163 to 166 °C.

`COC(=O)N(CC(=O)O)S(=O)(=O)c1ccc(N2CCC(NC[C@H](O)c3ccc(O)c(NS(C)(=O)=O)c3)CC2)cc1` (as salt: salt) [Example 60, [[(4-{4-[((2R)-2-Hydroxy-2-{4-hydroxy-3-[(methylsulfonyl)amino]phenyl}-ethyl)amino]piperidin-1-yl}phenyl)sulfonyl](methoxycarbonyl)amino]acetic Acid] came in with a melting point of 60 °C.

For the compound `CS(=O)(=O)Nc1cc([C@@H](O)CNC2CCN(c3ccc(S(=O)(=O)N(CC(=O)O)Cc4cc(F)ccc4F)cc3)CC2)ccc1O` (as salt: salt) [Example 63, 2-{(2,5-Difluorobenzyl)[(4-{4-[((2R)-2-hydroxy-2-{4-hydroxy-3-[(methylsulfonyl)-amino]phenyl}ethyl)amino]-1-piperidinyl}phenyl)sulfonyl]amino}acetic acid], the melting point lay in the range of 80 to 82 °C.

For `CS(=O)(=O)Nc1cc([C@@H](O)CNC2CCN(c3ccc(S(=O)(=O)N4CCN(CC(=O)O)CC4)cc3)CC2)ccc1O` (as salt: sodium) [Example 65], the melting point was 131 °C (dec.).

As to `COc1ccc(NS(=O)(=O)c2ccc(N3CCC(NC[C@H](O)COc4ccc(OCc5ccccc5)cc4)CC3)cc2)cc1OC` [Example 9, 4-{4-[(2S)-3-(4-Benzyloxy-phenoxy)-2-hydroxy-propylamino]-piperidin-1-yl}-N-(3,4-dimethoxy-phenyl)-benzenesulfonamide], the melting point fell in the range of 113 to 121 °C.

The compound `COc1ccc(NS(=O)(=O)c2ccc(N3CCC(NC[C@H](O)COc4cccc5[nH]c6ccccc6c45)CC3)cc2)cc1OC` [Example 10, 4-{4-[(2S)-3-(9H-Carbazol-4-yloxy)-2-hydroxy-propylamino]-piperidin-1-yl}-N-(3,4-dimethoxy-phenyl)-benzenesulfonamide] gave a melting point of 58 to 64 °C. In series [1], the EC50 turned out to be 0.1 µM and the “beta-3 (IA) maximal response relative to isoproterenol” value is recorded as “(0.45)”.

For `COc1ccc(NS(=O)(=O)c2ccc(N3CCC(NC[C@H](O)COc4ccc(O)cc4)CC3)cc2)cc1OC` [Example 11, N-(3,4-Dimethoxy-phenyl)-4-{4-[(2S)-2-hydroxy-3-(4-hydroxy-phenoxy)-propylamino]-piperidin-1-yl}-benzenesulfonamide], the melting point fell in the range of 101 to 106 °C. In series [1], the EC50 worked out at 0.33 µM and the “beta-3 (IA) maximal response relative to isoproterenol” value was “(0.83)”.

On to `CCCCNS(=O)(=O)c1ccc(N2CCC(NC[C@H](O)COc3cccc4[nH]c(=O)[nH]c34)CC2)cc1` [Example 12, N-Butyl-4-{4-[(2S)-2-hydroxy-3-(2-oxo-2,3-dihydro-1H-benzoimidazol-4-yloxy)-propylamino]-piperidin-1-yl}-benzenesulfonamide], for which the melting point was 69 to 75 °C. In series [1], the concentration giving a half-maximal response (EC50) is 0.01 µM and the “beta-3 (IA) maximal response relative to isoproterenol” value was “(1)”.

Take `CCCCNS(=O)(=O)c1ccc(N2CCC(NC[C@H](O)COc3cccc4[nH]c5ccccc5c34)CC2)cc1` [Example 13, N-Butyl-4-{4-[(2S)-3-(9H-carbazol-4-yloxy)-2-hydroxy-propylamino]-piperidin-1-yl}-benzenesulfonamide]: the melting point is 166 to 179 °C. In addition, in series [1], the concentration for a half-maximal effect (EC50) was determined as 0.05 µM and the “beta-3 (IA) maximal response relative to isoproterenol” value is “(0.7)”.

Take `CC(C)OC(=O)C1CCCN1S(=O)(=O)c1ccc(N2CCC(NCC(O)COc3cccc4[nH]c(=O)[nH]c34)CC2)cc1` (stereo not drawn) [Example 16, 1-(4-{4-[2-Hydroxy-3-(2-oxo-2,3-dihydro-1H-benzoimidazol-4-yloxy)-propylamino]-piperidin-1-yl}-benzenesulfonyl)-pyrrolidine-2-carboxylic Acid Isopropyl Ester]: the melting point lay within 74 to 83 °C. In series [1], the EC50 is 0.003 µM and the “beta-3 (IA) maximal response relative to isoproterenol” value is given as “(0.86)”.

Turning to `CNC(=O)C1CCCN1S(=O)(=O)c1ccc(N2CCC(NC[C@H](O)COc3cccc4[nH]c(=O)[nH]c34)CC2)cc1` (stereo partly drawn) [Example 17, 1-(4-{4-[(2S)-2-Hydroxy-3-(2-oxo-2,3-dihydro-1H-benzoimidazol-4-yloxy)-propylamino]-piperidin-1-yl}-benzenesulfonyl)-pyrrolidine-2-carboxylic Acid Methylamide], the melting point is 36 to 39 °C. In addition, in series [1], the EC50 was 0.028 µM and the “beta-3 (IA) maximal response relative to isoproterenol” value is on record as “(0.81)”.

With `Cc1ccc(S(=O)(=O)c2ccc(N3CCC(NC[C@H](O)COc4cccc5[nH]c(=O)[nH]c45)CC3)cc2)cc1` [Example 46, 4-((2S)-2-Hydroxy-3-{1-[4-(toluene-4-sulfonyl)-phenyl]-piperidin-4-ylamino}-propoxy)-1,3-dihydro-benzoimidazol-2-one], the melting point lay in the range of 130 to 132 °C. Further, in series [1], the 50% effective concentration (EC50) stood at 0.009 µM and the “beta-3 (IA) maximal response relative to isoproterenol” value was “(1.1)”.

Take `O=C1CN(S(=O)(=O)c2ccc(N3CCC(NC[C@H](O)COc4cccc5[nH]c(=O)[nH]c45)CC3)cc2)C(=O)N1` [Example 49, 1-(4-{4-[(2S)-2-Hydroxy-3-(2-oxo-2,3-dihydro-1H-benzoimidazol-4-yloxy)-propylamino]-piperidin-1-yl}-benzenesulfonyl)-imidazolidine-2,4-dione]: the melting point is 230 °C (dec.). Besides, in series [1], the concentration giving a half-maximal response (EC50) is 0.009 µM and the “beta-3 (IA) maximal response relative to isoproterenol” value is given as “(0.96)”.
